One test concerns the target EcPhnD (Escherichia coli, UniProt P16682). Particulars: cited from earlier work.
The next test addresses T1, WT (SEQ ID NO: 5) EcPhnD (Escherichia coli, UniProt P16682, N152C).
T1 construct: made in house; host or cells: E. coli BL21 DE3
Description: biochemical. The format is binding, E. coli. How it is done:
(§1) Fluorescent screening and data Analysis. All fluorescence measurements were collected on a SpectraM2 fluorescence spectrometer at 22° C. Acrylodan excitation was set-up at 359 nm and an emission sweep was collected between 400-600 nm. Coumarin conjugated PhnD was excited at 419 nm and an emission spectrum was collected between 430-520 nm. Titrations were performed by increasing concentration of ligand and monitoring the changes in fluorescence intensity at 465 nm for coumarin conjugates or the ratio of fluorescence at 570 nm/450 nm. Error bars represent the standard deviation from three individual titrations. The fluorescence intensity at each wavelength was measured three times for each ligand concentration and the average of the reading was calculated. The ratio of the two averages from each of the three titrations was used to calculate the standard deviation. Kd values were determined by fitting the titration data to the following single binding isotherm equation using Kaleidagraph, where F is the observed fluorescence at a certain ligand concentration [L], Fo is the fluorescence in the absence of ligand, and Fmax is the fluorescence at saturating ligand concentrations.

Test [1] has as its system PND177NΔ (SEQ ID NO: 2). The test can be described thus: biochemical. The following applies: PhnD-E177NΔ sensor vs wild type. The format is binding, E. coli.
From the text: (§2) To determine the Kd values, the ratio of fluorescence between two wavelengths (570 nm/450 nm) was monitored as a function of increasing ligand concentrations (FIGS. 2 and 3). The titration data were fit to a single binding isotherm equation (eq. 1), where R is defined as the fluorescence ratio at a given ligand concentration [L], R0 is the fluorescence ratio in the absence of ligand and Rmax is the fluorescence ratio at saturating ligand concentrations.
as §1

For test [2], the target named is T2, PND177NΔ (SEQ ID NO: 2) (Escherichia coli, UniProt P16682, E203N/N152C).
T2 construct: made in house; host or cells: E. coli BL21 DE3
Description: biochemical. The test is classed as binding, E. coli. Particulars: for affinity of the sensor for the ligand, in words: PhnD-E177NΔ sensor.
From the text: as §2, §1

A short description of test [3]: Fluorescence titration of acrylodan-labelled PhnD variants with glyphosate. The test is classed as binding. The text has this: The fluorescent reporter group attached to PhnD changes its emission properties in response to glyphosate binding which can be observed using fluorescent spectroscopy. This allows detection of a ligand (in this case glyphosate), where fluorescence emission can be used to determine the concentration of glyphosate in solution. Two main types of data were collected, Apo vs Saturated spectra showing fluorescence emission with and without glyphosate (not shown), and the other type was titrations done with increasing glyphosate concentrations to determine the Kd value for each mutant for glyphosate.
The purified, fluorescently-labeled mutants were tested for their ability to bind to glyphosate. Kd values were determined by monitoring the changes in fluorescence as a function of increasing ligand concentrations. Table 1 provides dissociation constants (Kd values) of different PhnD variants for glyphosate. All mutants contain a cysteine at position 126 for attachment of acrylodan. Values were obtained by monitoring fluorescence change as a function of ligand concentration using eq. 1.
Importantly, the change in fluorescence associated with ligand binding is ratiometric with a larger decrease in emission at lower wavelengths. To determine the Kd values, the ratio of fluorescence between two wavelengths (570 nm/450 nm) was monitored as a function of increasing ligand concentrations (FIGS. 2 and 3). The titration data were fit to a single binding isotherm equation (eq. 1), where R is defined as the fluorescence ratio at a given ligand concentration [L], R0 is the fluorescence ratio in the absence of ligand and Rmax is the fluorescence ratio at saturating ligand concentrations.
Fluorescent screening and data Analysis. All fluorescence measurements were collected on a SpectraM2 fluorescence spectrometer at 22° C. […] Titrations were performed by increasing concentration of ligand and monitoring the changes in fluorescence intensity at 465 nm for coumarin conjugates or the ratio of fluorescence at 570 nm/450 nm. […]

Where [4] appears, read: WT (SEQ ID NO: 5), read-out: WT Kd.
Where [5] appears, read: PND177NΔ (SEQ ID NO: 2), acrylodan, ratio 570 nm/450 nm, read-out: PND177NΔ Kd.

Where two headings read alike, the source gives them in different places.

T1 sequence (P16682 27-338 N152C): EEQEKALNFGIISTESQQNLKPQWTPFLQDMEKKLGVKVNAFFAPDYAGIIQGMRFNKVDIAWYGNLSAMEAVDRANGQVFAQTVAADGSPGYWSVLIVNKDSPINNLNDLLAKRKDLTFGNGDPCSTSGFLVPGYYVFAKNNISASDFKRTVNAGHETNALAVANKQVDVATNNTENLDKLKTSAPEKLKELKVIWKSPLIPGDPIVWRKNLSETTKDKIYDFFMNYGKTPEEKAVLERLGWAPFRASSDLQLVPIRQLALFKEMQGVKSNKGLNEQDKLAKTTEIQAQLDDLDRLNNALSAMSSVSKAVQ
Chain of EcPhnD (P16682 27-338): as the sequence (P16682 27-338 N152C) above, with C126N counted along it

Regarding `NCCP(=O)(O)O` [2-Aminoethyl Phosphate (2-AEP), 2-Aminoethyl Phosphonate], the Kd was roughly 0.005 µM on EcPhnD (natural ligand, background statement, read-out: Kd of PhnD for 2-AEP); 0.002 µM on WT (SEQ ID NO: 5) EcPhnD (setting [4]); 5.61 µM on PND177NΔ (SEQ ID NO: 2) [2] (setting [5]). In the test with PND177NΔ (SEQ ID NO: 2) [1], the “reduction of affinity compared to the wild-type protein” value is “more than 3 orders of magnitude”.

On to `O=C(O)CNCP(=O)(O)O` [Glyphosate], for which the Kd at EcPhnD (previous research, read-out: Kd of EcPhnD for glyphosate) is roughly 650 µM; on WT (SEQ ID NO: 5) EcPhnD it was 650 µM; at PND177NΔ (SEQ ID NO: 2) [2], 4.29 µM.

For Arsenate, the results for the Kd at WT (SEQ ID NO: 5) EcPhnD (setting [4]) and at PND177NΔ (SEQ ID NO: 2) [2] (setting [5]) were 230 µM and 10.7 µM, respectively. In addition, the “affinity of the sensor for the ligand, in words” value on PND177NΔ (SEQ ID NO: 2) [2] is listed as “moderate affinities”.

Regarding Phosphate, the Kd at WT (SEQ ID NO: 5) EcPhnD (setting [4]) is 260 µM; at PND177NΔ (SEQ ID NO: 2) [2] (setting [5]) it was 26.1 µM. Moreover, the “affinity of the sensor for the ligand, in words” value at PND177NΔ (SEQ ID NO: 2) [2] is listed as “moderate affinities”.

B1: E177N (protein)
chain: EEQEKALNFGIISTESQQNLKPQWTPFLQDMEKKLGVKVNAFFAPDYAGIIQGMRFNKVDIAWYGNLSAMEAVDRANGQVFAQTVAADGSPGYWSVLIVNKDSPINNLNDLLAKRKDLTFGNGDPCSTSGFLVPGYYVFAKNNISASDFKRTVNAGHETNALAVANKQVDVATNNTNNLDKLKTSAPEKLKELKVIWKSPLIPGDPIVWRKNLSETTKDKIYDFFMNYGKTPEEKAVLERLGWAPFRASSDLQLVPIRQLALFKEMQGVKSNKGLNEQDKLAKTTEIQAQLDDLDRLNNALSAMSSVSKAVQ
Consider B1, for which the “fold increase in affinity for glyphosate over the wild-type protein” value in test [3] is recorded as 80 fold.

B2: E177NΔ (protein)
chain: EEQEKALNFGIISTESQQNLKPQWTPFLQDMEKKLGVKVNAFFAPDYAGIIQGMRFNKVDIAWYGNLSAMEAVDRANGQVFAQTVAADGSPGYWSVLIVNKDSPINNLNDLLAKRKDLTFGNGDPCSTSGFLVPGYYVFAKNNISASDFKRTVNAGHETNALAVANKQVDVATNNTNNLDKLKTSAPEKLKELKVIWKSPLIPGSPIVWRKNLSETTKDKIYDFFMNYGKTPEEKAVLERLGWAPFRASSDLQLVPIRQLALFKEMQGVKSNKGLNEQDKLAKTTEIQAQLDDLDRLNNALSA
In the case of B2, in test [3], the “fold increase in affinity for glyphosate over the wild-type protein” value is reported as “over 150 fold”. The “fluorescence change associated with glyphosate binding” value in test [3] (saturating glyphosate (FIG. 6)) is given as “large decrease in fluorescence”.

Values taken from patent US12584915B2, “Glyphosate biosensor” (priority 2019, dated 2026).
